Measurements from article PMC8538057, “Direct Delivery of ANA-TA9, a Peptide Capable of Aβ Hydrolysis, to the Brain by Intranasal Administration” (Pharmaceutics, 2021).
Ends that are not written are not given here.

Assays:
[1] = Disposition and nasal absorption of ANA-TA9 in rats (plasma pharmacokinetics after i.v. bolus, i.v. infusion and i.n. administration); format: in vivo, Male Wistar/ST rats; conditions: rat
Experimental: For i.n. administration, ANA-TA9 was dissolved in PBS at a concentration of 100 mg/mL. For intravenous (i.v.) administration, the nasal solution was diluted to 10 mg/mL with PBS. For i.v. infusion, ANA-TA9 was dissolved in PBS to a concentration of 12 mg/mL. The rats were anesthetized through i.p. administration of a mixture of medetomidine (0.15 mg/kg body weight), midazolam (2 mg/kg body weight), and butorphanol (2.5 mg/kg body weight). The right femoral artery was cannulated with polyethylene tubing. ANA-TA9 was injected into the left femoral vein of 3 rats at a dose of 2 mg (200 μL of a 10 mg/mL PBS solution). Those 3 rats nasally received the same dose of ANA-TA9 (20 μL of a 100 mg/mL PBS solution) under anesthesia. For nasal administration, a micropipette was used. After i.n. administration, the animals were kept conscious in a rat cage ([…], Tokyo, Japan) throughout the experiment after recovery from anesthesia. The PBS solution of ANA-TA9 (12 mg/mL) was infused intravenously for 10 min at a 25 μL/min flow rate. The infused dose was 3 mg/rat. At the appropriate time intervals after administration, blood samples were taken, heparinized, and immediately cooled down on ice, followed by centrifugation at 15,000 rpm for 5 min to obtain the plasma. The plasma samples were stored at -40 °C until the assay. In the preliminary study, it was confirmed that ANA-TA9 stored at -40 °C is stable for at least 2 weeks. The plasma and brain concentrations of ANA-TA9 were determined by LC/MS, LC-20A, and LCMS-2020 (SHIMADZU, Kyoto, Japan). Briefly, 100 μL of the plasma were mixed with 1000 μL of methanol. […] To the dissected brain tissue, 100 μL of ice-cold purified water were added, and the mixture was homogenized under ice-cold conditions. To the homogenate, 4000 μL of ice-cold methanol were added. […] The residues were reconstituted with 100 μL of the mobile phase of the chromatography. In the preliminary study, it was confirmed that the effect of rapid degradation of ANA-TA9 on the assay could be excluded by the treatment on the blood and brain tissues mentioned above. Chromatographic separation was performed using a C18 analytical column (TSKgel ODS 100V, 3 μm, 2.0 mm × 100 mm; TOSOH, Tokyo, Japan). The mobile phase was acetonitrile/0.1% acetic acid (10/90), and the flow rate was 0.2 mL/min. ANA-TA9 eluting from the column was detected with mass spectrometry under the positive mode. Nitrogen gas was used for nebulization at a flow rate of 1.5 L/min. Other conditions (temperature and voltage) were set as the default. The calibration curves of ANA-TA9 in the plasma and the brain were determined. […] The area under the plasma concentration-time profile (AUC) after i.v. and i.n. administration was obtained based on the linear trapezoidal rules. In the case of the i.n. application, the concentrations of the last three samples were extrapolated to estimate the area after the last sampling time. The dose was divided by the AUC to obtain the clearance. After normalization of the AUC with each dose, the bioavailability was calculated by the division of the normalized i.n. AUC by the normalized AUC after i.v. infusion.

[2] = In vitro stability in the whole blood; format: in vitro ADME, rat
Experimental: (§1) After the anesthetization of rats with an i.p. application of the anesthetic mixture, the cerebrospinal fluid (CSF) was collected by cisternal puncture, followed by the collection of whole blood from the polyethylene cannula inserted into the right femoral artery. The blood was heparinized and centrifuged at 15,000 rpm for 10 min at 4 °C, and the supernatant was collected as plasma.
(§2) ANA-TA9 was dissolved in PBS at a concentration of 0.1 mg/mL or 1 mg/mL. Immediately before the incubation, 5 μL or 10 μL of the ANA-TA9 solution was added to 45 μL or 90 μL of CSF or plasma, respectively. Similarly, 10 μL of the ANA-TA9 solution was added to 90 μL of whole blood. At predetermined times after the incubation at 37 °C, the samples were cooled by placing them on ice. Methanol (1 mL) was added to the plasma and whole blood for deproteinization. The mixtures were then vortexed and centrifuged at 15,000 rpm for 5 min at 4 °C. The supernatant was transferred to tubes and evaporated to dryness. The residue was reconstituted with 100 μL of the mobile phase of LC/MS mentioned below. The concentrations of ANA-TA9 in the plasma and whole blood were measured by LC/MS. The ANA-TA9 concentrations were measured in the CSF samples by LC/MS without any treatments.
Chromatographic separation was performed using a C18 analytical column (TSKgel ODS 100V, 3 μm, 2.0 mm × 100 mm; TOSOH, Tokyo, Japan). The mobile phase was acetonitrile/0.1% acetic acid (10/90), and the flow rate was 0.2 mL/min. ANA-TA9 eluting from the column was detected with mass spectrometry under the positive mode. Nitrogen gas was used for nebulization at a flow rate of 1.5 L/min. Other conditions (temperature and voltage) were set as the default. The calibration curves of ANA-TA9 in the plasma and the brain were determined.

[3] = In vitro stability in the cerebrospinal fluid; format: in vitro ADME; conditions: cerebrospinal fluid (CSF), rat CSF, 37 °C, LC/MS without treatment, three experiments
Experimental: as §1
as §2, with “The supernatant was transferred to tubes and evaporated to dryness. The residue was reconstituted with 100 μL of the mobile phase of LC/MS mentioned below.” left out
Chromatographic separation was performed using a C18 analytical column (TSKgel ODS 100V, 3 μm, 2.0 mm × 100 mm; TOSOH, Tokyo, Japan). […] ANA-TA9 eluting from the column was detected with mass spectrometry under the positive mode. […] The calibration curves of ANA-TA9 in the plasma and the brain were determined.

[4] = male, Wistar/ST, in vivo, inhaled or intranasal, 2 mg
[5] = male, Wistar/ST, in vivo, iv, 2 mg
[6] = male, Wistar/ST, in vivo, iv, 3 mg/animal

Work on SKGQAYRMI [ANA-TA9] yielded a bioavailability ([1]; male, Wistar/ST, plasma, inhaled or intranasal, i.n. 2 mg, dose-normalized i.n. AUC divided by normalized AUC after i.v. infusion, mean ± S.E. of three experiments, read-out: F (bioavailability), i.n.) of 36 ± 4.65%, a Cmax [1, 4] of 863 ± 187 ng/mL and a Tmax [1, 4] of 1 min. For the same sequence, the half-life [1, 5] was < 1 min, the level at 0.5 min [1, 5] was 575 ± 26 ng/mL and the level at 1 min [1, 5] was 111 ± 10 ng/mL. For the same sequence, the AUC [1, 6] was 215 ng·h/mL, the clearance [1, 6] was 260 ± 13.8 mL/min and the level at 0.25 h ([1]; male, Wistar/ST, in vivo, iv, 3 mg/rat) was 172 ± 121 ng/mL. For the same sequence, the “AUC, i.n.” value ([1]; i.n. 2 mg (20 μL of 100 mg/mL PBS solution), plasma, trapezoidal with extrapolation, mean ± S.E. of three experiments) was 3.10 ± 0.782 µg·min/mL, the “plasma concentration at 20 min (after end of i.v. infusion)” value ([1]; in vivo, iv) was “below the limit of detection” and the “initial concentration in the whole blood” value ([2]; rat whole blood (heparinized), 10 μL ANA-TA9 solution added to 90 μL, 37 °C, time 0, LC/MS, three experiments) was 80 µg/mL. For the same sequence, the “concentration of ANA-TA9 in the whole blood 5 min after the start of the incubation” value ([2]; rat whole blood, 10 μL ANA-TA9 solution added to 90 μL, 37 °C, 5 min, LC/MS, three experiments) was 20000 ng/mL, the “initial concentration in the whole blood, % of the expected value” ([2]; rat whole blood, time 0, LC/MS) was 80% and the remaining at 0.5 h ([3]; 5 μL ANA-TA9 PBS solution (0.1 mg/mL or 1 mg/mL) added to 45 μL CSF, 30 min, read-out: CSF concentration remaining at 30 min after the start of the incubation) was 74%. The remaining at 2 h ([3]; 5 μL ANA-TA9 PBS solution added to 45 μL CSF, 2 h, read-out: CSF concentration remaining at 2 h after the start of the incubation) was 46%.
